No end group written: not given here.
Experiments:
Type in all cases: binding
[1] = system: inventive complex compound (compound of Production Example 3-1 + zinc acetate) bonded to Streptavidin agarose; experiment: Selective adsorption of peptides on Streptavidin agarose carrying the inventive zinc complex, fractions quantified by HPLC (Experimental Example 2); settings: for isolation/recovery rate of the peptide to the total amount, fraction 1: filtrate of sample in 5.0 mM Tris-acetate buffer pH 7.4; for isolation/recovery rate of the peptide to the total amount, fraction 1 / isolation/recovery rate of the peptide to the total amount, fraction 5 / isolation/recovery rate of the peptide to the total amount, fraction 2 / isolation/recovery rate of the peptide to the total amount, fraction 6 / isolation/recovery rate of the peptide to the total amount, fraction 3 / isolation/recovery rate of the peptide to the total amount, fraction 4: agarose with zinc complex of Production Example 3-1; for isolation/recovery rate of the peptide to the total amount, fraction 5: first filtration with 1.0 mM phosphoric acid-sodium hydroxide buffer pH 7.4, 0.50M NaNO3; for isolation/recovery rate of the peptide to the total amount, fraction 2: first filtration with 5.0 mM Tris-acetate buffer pH 7.4, 0.50M NaNO3; for isolation/recovery rate of the peptide to the total amount, fraction 6: second filtration with 1.0 mM phosphoric acid-sodium hydroxide buffer pH 7.4, 0.50M NaNO3; for isolation/recovery rate of the peptide to the total amount, fraction 3: second filtration with 5.0 mM Tris-acetate buffer pH 7.4, 0.50M NaNO3; for isolation/recovery rate of the peptide to the total amount, fraction 4: third filtration with 5.0 mM Tris-acetate buffer pH 7.4, 0.50M NaNO3
Protocol: (§1) The suspension (0.3 mL) containing Streptavidin agarose (quantity of the bonded moiety of biotin: 60 to 120 nmol/mL) and a buffer (Sigma-Aldrich Co.) was charged in a centrifugal filter unit (volume: 0.5 mL filter pore diameter: 0.22 μm). The filter unit was subjected to centrifugal separation at centrifugal acceleration of 2,000×g for 15 seconds, followed by filtration of the suspension. 5.0 mM Tris-acetate buffer (pH=7.4, 0.30 mL) was charged in the filter unit, then the filter unit was subjected to centrifugal separation at 2,000×g for 15 seconds and filtration for washing. This centrifugal separation and filtration step for washing was cyclically repeated for 5 times.
To the filter unit, charged was 5.0 mM Tris-acetate buffer (pH=7.4, 0.30 mL) dissolving 120 nmol/mL of the compound obtained in Production Example 3-1 and 500 nmol/mL of zinc acetate. The filter unit was brought to an equilibrium state for 5 minutes, and then, subjected to centrifugal separation at 2,000×g for 15 seconds and filtration. Next, 5.0 mM Tris-acetate buffer (pH=7.4, 0.30 mL) was charged in the filter unit, and subjected to centrifugal separation at 2,000×g for 15 seconds and filtration for washing. This centrifugal separation and filtration step for washing was cyclically repeated for 5 times. Further, 5.0 mM Tris-acetate buffer (pH=7.4, 0.30 mL) dissolving 10 nmol/mL of zinc acetate was charged in the filter unit, and subjected to centrifugal separation at 2,000×g for 15 seconds and filtration for washing. This centrifugal separation and filtration step for washing was cyclically repeated for 5 times.
To the filter unit, charged was 5.0 mM Tris-acetate buffer (pH=7.4, 0.30 mL) dissolving non-phosphorylated peptide p60c (p60c-src peptide 521–533, 14 nmol/mL) and phosphorylated peptide P-p60c (O-phosphoryl p60c-src peptide 521–533, 12 nmol/mL), as samples. The filter unit was brought to an equilibrium state for 5 minutes, and then, subjected to centrifugal separation at 2,000×g for 15 seconds and filtration. The obtained filtrate was taken out as a fraction 1.
Next, 5.0 mM Tris-acetate buffer (pH=7.4, 0.50M NaNO3, 0.30 mL) was charged in the filter unit, and the filter unit was subjected to centrifugal separation at 2,000×g for 15 seconds and filtration for 3 times. The filtrate obtained after the first filtration was taken out as a fraction 2, the filtrate after the second filtration was taken out as a fraction 3, and the filtrate after the third filtration was taken out as a fraction 4.
Furthermore, 1.0 mM buffer containing phosphoric acid-sodium hydroxide (pH=7.4, 0.50M NaNO3, 0.30 mL) was charged in the filter unit, and the filter unit was subjected to centrifugal separation at 2,000×g for 15 seconds and filtration for 2 times. The filtrate obtained after the first filtration was taken out as a fraction 5, and the filtrate after the second filtration was taken out as a fraction 6.
The contents of the peptide in the respective fractions 1 through 6 were quantitatively determined by high performance liquid chromatography (HPLC).
(§2) Analyzing conditions according to HPLC: • column: Capcell Pak C18 type UG80, 4.6 mm (diameter)×150 mm • mobile phase: acetonitrile:water=14:86(v/v), 0.1%(v/v) of trifluoroacetic acid • flow rate: 1 mL/min. • column temperature: 40° C. • detecting method: UV 266 nm • retention time: P-p60c (5.3 min.). p60c (13.4 min.)

Streptavidin agarose = target: T1, Streptavidin agarose (Streptomyces avidinii, UniProt P22629); experiment: Same fractionation on Streptavidin agarose without the inventive complex compound (Comparative Example 1); settings: inventive complex compound not included; for isolation/recovery rate of the peptide, fraction 7: step as fraction 1 (sample filtrate, Tris-acetate pH 7.4); for isolation/recovery rate of the peptide, fraction 8: step as fraction 2 (Tris-acetate, 0.50M NaNO3, first); for isolation/recovery rate of the peptide, fraction 9: step as fraction 3 (Tris-acetate, 0.50M NaNO3, second); for isolation/recovery rate of the peptide, fraction 10: step as fraction 4 (Tris-acetate, 0.50M NaNO3, third); for isolation/recovery rate of the peptide, fraction 11: step as fraction 5 (phosphate buffer, first); for isolation/recovery rate of the peptide, fraction 12: step as fraction 6 (phosphate buffer, second)
T1 construct: purchased Sigma-Aldrich Co
Protocol: as §2
as §1, with “of biotin;” for “of biotin:”, “0.5 mL,” for “0.5 mL”, “at” for “at centrifugal acceleration of”, “suspension. Then,” for “suspension.”, “unit, and” for “unit, then”
A process similar to the process in Experiment Example 2 was conducted with use of samples equivalent to the samples used in Experimental Example 2, using a filter unit (in this Comparative Example, the inventive complex compound was not included). Thus, fractions 7 through 12 were obtained.
HPLC analysis was conducted with respect to the fractions 7 through 12 in a similar manner as Experimental Example 2.

[2] = system: α-casein (phosphorylated), β-casein (phosphorylated), pepsin (phosphorylated); experiment: 10% native-polyacrylamide gel electrophoresis, gel stained and imaged by fluoro image analyzer (Experimental Example 3); settings: ten protein samples
Protocol: First, prepared were gels for electrophoresis, pH buffer for electrophoresis, and a coloring solution for dissolving samples under the same condition as in Experimental Example 1.
Next, 2 μg each of 1: Bovine Serum Albumin, 2: Human Serum Albumin, 3: carbonic anhydrase, 4: β-galactosidase, 5: α-casein (phosphorylated), 6: α-casein (de-phosphorylated), 7: β-casein (phosphorylated), 8: β-casein (de-phosphorylated), 9: pepsin (phosphorylated), and 10: pepsin (de-phosphorylated) was dissolved in the coloring solution to prepare samples. The respective samples were plotted on the gel. Then, a constant electric current of 40 mA was applied until the coloring marker was flowed.
The obtained gel was immersed in a 10 mM Tris-acetate buffer (pH=7.4) containing 1 μM of N,N,N′-tri(2-pyridylmethyl)-N′-[5-N″-(2-N-5-fluoresceinylthioureidoethyl)carbamoyl-2-pyridylmethyl]-1,3-diamopropane-2-ol obtained in Production Example 8-1 and 100 μM zinc acetate for 30 minutes. Thereafter, the gel was taken out from the solution. This gel was washed with 100 mL of 10 mM Tris-acetate buffer (pH=7.4) for 10 minutes twice. Thereafter, a fluorescent image of the gel was photographed by using a fluoro image analyzer FLA-5000 (Fuji Photo Film Co., Ltd.) at an excitation wavelength of 473 nm with use of a fluorescence detecting filter of 510 nm. […]

T1 sequence (P22629 25-183): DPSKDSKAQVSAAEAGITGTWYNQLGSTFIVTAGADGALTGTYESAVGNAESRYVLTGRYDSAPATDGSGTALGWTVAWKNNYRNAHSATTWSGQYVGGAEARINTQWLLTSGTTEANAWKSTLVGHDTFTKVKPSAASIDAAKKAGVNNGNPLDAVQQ

Row | Compound | isolation/recovery rate of the peptide to the total amount, fraction 1 [1] [%] | isolation/recovery rate of the peptide to the total amount, fraction 5 [1] [%] | isolation/recovery rate of the peptide to the total amount, fraction 2 [1] [%] | isolation/recovery rate of the peptide to the total amount, fraction 6 [1] [%] | isolation/recovery rate of the peptide to the total amount, fraction 3 [1] [%] | isolation/recovery rate of the peptide to the total amount, fraction 4 [1] [%] | isolation/recovery rate of the peptide, fraction 7 (Streptavidin agarose) [%] | isolation/recovery rate of the peptide, fraction 8 (Streptavidin agarose) [%] | isolation/recovery rate of the peptide, fraction 9 (Streptavidin agarose) [%] | isolation/recovery rate of the peptide, fraction 10 (Streptavidin agarose) [%] | isolation/recovery rate of the peptide, fraction 11 (Streptavidin agarose) [%] | isolation/recovery rate of the peptide, fraction 12 (Streptavidin agarose) [%] | dyeing of proteins in the gel by the conventional dyeing process ([2]; same gel, FIG. 9 gel B) | identification (fluorescent labeling) of proteins in the gel ([2]; 1 μM compound + 100 μM zinc acetate, 10 mM Tris-acetate pH 7.4, 30 minutes, excitation 473 nm, FIG. 9 gel A) | selective adsorption of phosphorylated peptide ([1]; mixed sample of P-p60c and p60c, complex formed with zinc acetate, bonded to Streptavidin agarose)
1 | p60c: non-phosphorylated peptide p60c (p60c-src peptide 521–533) (DYFTSTEPQYQPG; UniProt P12931 521-533, looked up, fragment) | 67 | 0 | 24 | 0 | 9 | 0 | 75 | 20 | 5 | 0 | 0 | 0 | – | – | –
2 | Coomassie brilliant blue | – | – | – | – | – | – | – | – | – | – | – | – | all the peptides were dyed | – | –
3 | P-p60c: phosphorylated peptide P-p60c (O-phosphoryl p60c-src peptide 521–533) (DYFTSTEPQYQPG; also: O-phosphotyrosine, position not given here; UniProt P12931 521-533, looked up, fragment) | 0 | 83 | 0 | 17 | 0 | 0 | 83 | 17 | 0 | 0 | 0 | 0 | – | – | –
4 | O=C(NCCNC(=S)Nc1ccc(-c2c3ccc(=O)cc-3oc3cc(O)ccc23)c(C(=O)O)c1)c1ccc(CN(Cc2ccccn2)CC(O)CN(Cc2ccccn2)Cc2ccccn2)nc1 (stereo not drawn) [Production Example 8-1, N,N,N′-Tri(2-pyridylmethyl)-N′-[5-N″-(2-N-5-fluoresceinylthioureidoethyl)carbamoyl-2-pyridylmethyl]-1,3-diaminopropane-2-ol] | – | – | – | – | – | – | – | – | – | – | – | – | – | only 5: α-casein (phosphorylated), 7: β-casein (phosphorylated) and 9: pepsin (phosphorylated) to all of which the phosphoric acid has been bonded were identified exclusively | –
5 | N,N,N′-Tri(2-pyridylmethyl)-N′-[5-N″-2-(6-D-biotinamidohexacarboxyamidoethyl)carbamoyl-2-pyridylmethyl]-1,3-diaminopropane-2-ol [Production Example 3-1] | – | – | – | – | – | – | – | – | – | – | – | – | – | – | can adsorb selectively a phosphorylated peptide

Source: patent US7202093B2, “Method for labeling phosphorylated peptides, method for selectively adsorbing phosphorylated peptides, complex compounds used in the methods, process for producing the complex compounds, and raw material compounds for the complex compounds” (Kabushiki Kaisha Nard Kenkyusho, priority 2003, dated 2007)
